The text below walks through data of patent US11945779B2, “Inhibitors of cancer metastasis through inhibiting migration and invasion of cancer cells” (VSpharmtech, priority 2018, dated 2024).

The structures appear in SMILES notation.

In data set [1] the test system is colon cancer cell line DLD-1. As to the kind of experiment: Trans-well cancer cell migration inhibition, DLD-1. The data set is classed as cell-based, human. As to conditions: Homo sapiens; Colon cancer cell DLD-1, trans-well, 16 hours; read-out: Concentration inhibiting migration of cancer cells by 50% (IC50 value). The procedure: (§1) In order to analyze cancer cell migration inhibitory activity of CG-608, CG-609 or CG-618 prepared in Examples 1, 2, or 9, cell migration inhibitory activity was measured using a trans-well by targeting a colon cancer cell line DLD-1 (ATCC-CCL-221), pancreatic cancer cell lines AsPc-1 (ATCC-CCL-1682). CFPAC-1 (ATCC-CCL-1918). Panc-1 (ATCC-CCL-1469), and Miapaca-2 (ATCC-CCL-1420), a skin cancer cell line A375-P (ATCC-CCL-3224), lung cancer cell lines HCC-827 (ATCC-CCL-2868), A549 (ATCC-CCL-185), and NCI-H460 (ATCC-CCL-177), a prostate cancer cell line DU145 (ATCC-HTB-81), a stomach cancer cell line NuGC-3 (JCRB0822), and an ovarian cancer cell line SKOV-3 (ATCC-HTB-77).
(§2) First, the number of DLD-1 cells was measured using a hemocytometer in an RPMI medium without FBS. Thereafter, the trans-well was placed on a 24-well plate and 8×10^4 […] of cells were added. In an empty space with the trans-well on the well plate, […] of an RPM medium having 10% FBS containing CG-608, CG-609, or CG-618 was added and cultured in a CO2 incubator at 37° C. for 16 hours. After culture, […] of crystal violet (5 mg/mL of 20% […] was added to each well of the 24-well plate and the trans-well was dyed at room temperature for 30 minutes. The dyed trans-well was washed with PBS and non-migrated cells were wiped off with cotton swabs. The prepared sample was photographed with an inverted microscope mounted with a digital camera (TE 300, Nikon. Japan) and then the number of migrated cells was counted. The degree of inhibiting cell migration was calculated by Equation 1 for a group treated with the sample compared to a control group (DMSO).
(§3) In Equation 1, ‘the number of migrated cells treated with sample’ refers to the number of migrated cells measured by treating CG-608 or CG-618 of Example 1, and ‘the number of migrated cells of a control sample’ refers to the number of migrated cells measured by treating only 1% dimethyl sulfoxide (DMSO) instead of the compound.

Data set [2] deals with pancreatic cancer cell line AsPc-1. Nature of the data set: Trans-well cancer cell migration inhibition, AsPc-1. Particulars: Homo sapiens, ASPC1; Pancreatic cancer cell line AsPc-1; read-out: Concentration inhibiting migration of cancer cells by 50% (IC50 value). In kind it is cell-based. The procedure: as §1, §2, §3
The subject of data set [3] is skin cancer cell line A375-P. Nature of the data set: Trans-well cancer cell migration inhibition, A375-P. The data set is classed as cell-based. Particulars: Homo sapiens, A375P; Skin cancer cell A375-P; read-out: Concentration inhibiting migration of cancer cells by 50% (IC50 value). The procedure:
as §1, §2, §3

Data set [4] has as its system prostate cancer cell line DU145. As to the kind of experiment: Trans-well cancer cell migration inhibition, DU145. As to conditions: Homo sapiens, DU-145; Prostate cancer cell DU145; read-out: Concentration inhibiting migration of cancer cells by 50% (IC50 value). In kind it is cell-based. The procedure: as §1, §2, §3
In data set [5] the test system is lung cancer cell line HCC-827. Nature of the data set: Trans-well cancer cell migration inhibition, HCC-827. The data set is classed as cell-based. As to conditions: Homo sapiens, HCC827; Lung cancer cell HCC-827; read-out: Concentration inhibiting migration of cancer cells by 50% (IC50 value). The procedure:
as §1, §2, §3

Data set [6] concerns stomach cancer cell line NuGC-3. Nature of the data set: Trans-well cancer cell migration inhibition, NuGC-3. The data set is classed as cell-based. Particulars: Homo sapiens; Gastric cancer cell NuGC-3; read-out: Concentration inhibiting migration of cancer cells by 50% (IC50 value). The procedure:
as §1, §2, §3

Data set [7] is described as follows: Acute toxicity test for oral administration to rats. Particulars: rat, in vivo, 1000 mg/kg; SD rats, single oral dose; read-out: Minimum dose (LD50) of oral administration. The procedure: Six-week-old specific pathogen free (SPF) SD-based rats were divided by two per group and then CG-608, CG-609, or CG-618 prepared in Example 1, 2, or 9 was dissolved in distilled water for injection and orally administered to rats once in a dose of 1000 mg/kg.

Data set [8] concerns colon cancer cells DLD-1. Nature of the data set: Cancer cell invasion inhibition (Matrigel trans-well), DLD-1. In kind it is cell-based. Particulars: Homo sapiens, DLD-1; 5 μM. The procedure: In order to analyze cancer cell invasion inhibitory activity of CG-609 or CG-618 prepared in Example 1 or 9, cell invasion inhibitory activity using a trans-well was measured by targeting colon cancer cell line DLD-1 cells or pancreatic cancer cell line AsPc-1 cells.
Matrigel was diluted by 1/5 using an RPMI medium without FBS and then […] was put into each trans-well. The cells were coated in a […] for 2 hours. The number of DLD-1 cells was measured using a hemocytometer in an RPMI medium without FBS. Thereafter, the coated trans-well was placed on a 24-well plate and 8×10^4 […] of cells were added. In an empty space of the trans-well on the well plate, […] of an RPMI medium having 10% FBS containing (S)-(−)-benproperine was added and cultured in a CO2 incubator at 37° C. for 16 hours. After culture, […] of crystal violet (5 mg/mL of 20% MeOH) was added to each well of the 24-well plate and the trans-well was dyed at room temperature for 30 minutes. The dyed trans-well was washed with PBS and non-migrated cells were wiped off with cotton swabs. The prepared sample was photographed with an inverted microscope mounted with a digital camera (TE 300, Nikon, Japan), and then the number of migrated cells was counted. The degree of inhibiting cell migration was calculated for a group treated with the sample compared to a control group (DMSO).

Consider `CC1CCCCN1[C@@H](C)COc1ccccc1Cc1ccccc1` (stereo partly drawn) [CG-608, 1-((S)-1-(2-benzylphenoxy)propan-2-yl)-2-methylpiperidine], for which the IC50 in data set [1] was found to be 200 nM; in data set [2], 250 nM; in data set [3], 1.5 µM; in data set [4], 5 µM; in data set [5] it was 1.5 µM; in data set [6], 2000 nM. For the same molecule, the LD50 in data set [7] was no less than 1000 mg/kg.
The inhibition is the relative decrease from the control value, in per cent. `CC(COc1ccccc1Cc1ccccc1)N1CCCCC1` (centres unmarked) [benproperine, reference compound]: the IC50 was 2000 nM in data set [1]; 3000 nM in data set [2]; 7 µM in data set [3]; 20 µM in data set [4]; 20 µM in data set [5]; less than 20000 nM in data set [6]. Further, the inhibition at 5 µM in data set [8] was 50%.
